Source: ChEMBL document CHEMBL4052760, “Synthesis, antioxidant and antiproliferative activities of 1,3,4-thiadiazoles derived from phenolic acids” (Bioorg Med Chem Lett, 2017)
Calls of active or inactive are those of the source. The calls are words filed in the database; no cut-off is given here.

Assays:
[1] = Antioxidant activity assessed as DPPH radical scavenging activity after 30 mins in absence of light; format: functional
A549 = assay: Cytotoxicity against human A549 cells after 72 hrs by MTT assay; format: functional, cell-based; conditions: A549, 72 h
HL-60 [2] = assay: Cytotoxicity against human HL60 cells after 72 hrs by MTT assay; format: functional, cell-based; conditions: HL-60, 72 h
HeLa = assay: Cytotoxicity against human HeLa cells after 72 hrs by MTT assay; format: functional, cell-based
MRC5 = assay: Cytotoxicity against human MRC5 cells after 72 hrs by MTT assay; format: cell-based; conditions: MRC5, 72 h
HL-60 [3] = assay: Cytoprotective activity against H2O2-induced oxidative stress in human HL60 cells assessed as decrease in level of reactive oxygen species pretreated for 24 hrs at 6.25 uM followed by H2O2-stimulation for 30 mins by DCFH-DA staining-based FACS analysis; format: functional, cell-based
HL-60 [4] = assay: Downregulation of VEGFA in human HL60 cells assessed as decrease in mRNA expression levels at 6 uM after 24 hrs by RT-PCR analysis; format: functional, cell-based
HL-60 [5] = assay: Induction of cell death in human HL60 cells assessed as decrease in percentage of cells in subG1 phase at 2 times IC50 pretreated for 72 hrs followed by caspase-8 inhibitor Z-IETD-FMK addition measured after 24 hrs by propidium iodide-staining based FACS analysis; format: functional
HL-60 [6] = assay: Downregulation of MMP2 in human HL60 cells assessed as decrease in mRNA expression levels at 6 uM after 24 hrs by RT-PCR analysis; format: functional, cell-based
EA.hy 926 [7] = assay: Antiangiogenic activity against human EAhy926 cells assessed as inhibition of capillary-like tube formation at 50 uM measured after 20 hrs by inverted phase contrast microscopic analysis; format: functional, cell-based
HL-60 [8] = assay: Induction of apoptosis in human HL60 cells assessed as secondary necrosis at 2 times IC50 measured after 24 hrs by acridine orange/ethidium bromide staining-based fluorescence microscopic method; format: functional, cell-based
HL-60 [9] = assay: Downregulation of MMP2 in human HL60 cells assessed as decrease in mRNA expression levels at 6.5 uM after 24 hrs by RT-PCR analysis; format: functional, cell-based
HL-60 [10] = assay: Downregulation of VEGFA in human HL60 cells assessed as decrease in mRNA expression levels at 6.5 uM after 24 hrs by RT-PCR analysis; format: functional, cell-based
HL-60 [11] = assay: Downregulation of MMP9 in human HL60 cells assessed as decrease in mRNA expression levels at 6 uM after 24 hrs by RT-PCR analysis; format: functional, cell-based
HL-60 [12] = assay: Induction of apoptosis in human HL60 cells assessed as nuclear fragmentation at 2 times IC50 measured after 24 hrs by acridine orange/ethidium bromide staining-based fluorescence microscopic method; format: functional, cell-based
HL-60 [13] = assay: Induction of apoptosis in human HL60 cells assessed as chromatin condensation at 2 times IC50 measured after 24 hrs by acridine orange/ethidium bromide staining-based fluorescence microscopic method; format: functional, cell-based
HL-60 [14] = assay: Induction of cell death in human HL60 cells assessed as decrease in percentage of cells in subG1 phase at 2 times IC50 pretreated for 72 hrs followed by caspase-3 inhibitor Z-DEVD-FMK addition measured after 24 hrs by propidium iodide-staining based FACS analysis; format: functional
HL-60 [15] = assay: Induction of cell death in human HL60 cells assessed as decrease in percentage of cells in subG1 phase at 2 times IC50 pretreated for 72 hrs followed by caspase-9 inhibitor Z-LEHD-FMK addition measured after 24 hrs by propidium iodide-staining based FACS analysis; format: functional
HL-60 [16] = assay: Downregulation of MMP9 in human HL60 cells assessed as decrease in mRNA expression levels at 6.5 uM after 24 hrs by RT-PCR analysis; format: functional, cell-based
HL-60 [17] = assay: Cytoprotective activity against H2O2-induced oxidative stress in human HL60 cells assessed as decrease in level of reactive oxygen species pretreated for 24 hrs at 6.5 uM followed by H2O2-stimulation for 30 mins by DCFH-DA staining-based FACS analysis; format: functional, cell-based
EA.hy 926 [18] = assay: Antiangiogenic activity against human EAhy926 cells assessed as inhibition of capillary-like tube formation at 30 uM measured after 20 hrs by inverted phase contrast microscopic analysis; format: functional, cell-based
HL-60 [19] = assay: Cell cycle arrest in human HL60 cells assessed as accumulation at subG1 phase at 2 times IC50 after 24 hrs by FACS analysis; format: functional, cell-based
HL-60 [20] = assay: Cytoprotective activity against H2O2-induced oxidative stress in human HL60 cells assessed as decrease in level of reactive oxygen species pretreated for 24 hrs at 6 uM followed by H2O2-stimulation for 30 mins by DCFH-DA staining-based FACS analysis; format: functional, cell-based
HL-60 [21] = assay: Cell cycle arrest in human HL60 cells assessed as accumulation at subG1 phase at IC50 after 24 hrs by FACS analysis; format: functional, cell-based

Structure (SMILES) | IC50 [1] | IC50 (A549) | IC50 (HL-60 [2]) | IC50 (HeLa) | IC50 (MRC5) | other results
Cc1ccc(C(=O)Nc2nnc(-c3cccc(O)c3O)s2)cc1 | 27.1 µM | 11.3 µM | 10.6 µM | 13.4 µM | 33.2 µM | Activity (HL-60 [4]): Active; Activity (HL-60 [5]): Active; Activity (HL-60 [6]): Active; Activity (EA.hy 926 [7]): Active; Activity (HL-60 [8]): Active; Activity (HL-60 [9]): Active; Activity (HL-60 [10]): Active; Activity (HL-60 [11]): inactive; Activity (HL-60 [12]): Active; Activity (HL-60 [13]): Active; Activity (HL-60 [14]): Active; Activity (HL-60 [15]): inactive; Activity (HL-60 [16]): inactive
CC(=O)Nc1nnc(-c2ccc(O)c(O)c2)s1 | 23.4 µM | 133 µM | 42.5 µM | 125 µM | 58.6 µM | –
O=C(COc1ccccc1)Nc1nnc(-c2ccc(O)c(O)c2)s1 | 36.1 µM | 21.2 µM | 17.4 µM | 51.3 µM | 30.9 µM | –
CC(=O)Nc1nnc(-c2cccc(O)c2O)s1 | 111 µM | 200 µM | 49 µM | 177 µM | 156 µM | –
O=C(Nc1nnc(-c2ccc(O)c(O)c2)s1)c1ccccc1 | 23.4 µM | 13 µM | 17.6 µM | 23.3 µM | 27.4 µM | –
O=C(Nc1nnc(-c2ccc(O)c(O)c2)s1)C1CCCCC1 | 37.3 µM | 16.3 µM | 8.8 µM | 34.5 µM | 24 µM | –
O=C(Nc1nnc(-c2ccc(O)c(O)c2)s1)c1ccc(Cl)cc1 | 53 µM | 14.6 µM | 14.7 µM | 47.3 µM | 30.6 µM | –
O=C1O[C@H]([C@@H](O)CO)C(O)=C1O [ASCORBIC ACID] | 38 µM | – | – | – | – | –
Cc1ccc(C(=O)Nc2nnc(-c3ccc(O)c(O)c3)s2)cc1 | 34 µM | 11.8 µM | 10.5 µM | 67.1 µM | 27.1 µM | –
O=C(Nc1nnc(-c2cccc(O)c2O)s1)c1ccc(Cl)cc1 | 30.2 µM | 9.5 µM | 9.6 µM | 13 µM | 18.7 µM | Activity (HL-60 [4]): Active; Activity (HL-60 [5]): Active; Activity (HL-60 [6]): Active; Activity (EA.hy 926 [7]): Active; Activity (HL-60 [8]): Active; Activity (HL-60 [9]): Active; Activity (HL-60 [10]): Active; Activity (HL-60 [11]): inactive; Activity (HL-60 [12]): Active; Activity (HL-60 [13]): Active; Activity (HL-60 [14]): Active; Activity (HL-60 [15]): inactive; Activity (HL-60 [16]): inactive

Now those with a lower IC50 [1], led by results:

IC50 [1] | Structure (SMILES) | IC50 (A549) | IC50 (HL-60 [2]) | IC50 (HeLa) | IC50 (MRC5) | other results
21.3 µM | O=C(Cc1ccccc1)Nc1nnc(-c2ccc(O)c(O)c2)s1 | 15.4 µM | 12 µM | 88.6 µM | 30.7 µM | –
19.9 µM | O=C(Nc1nnc(-c2cccc(O)c2O)s1)C1CCCCC1 | 11 µM | 7.9 µM | 91.6 µM | 70.3 µM | Activity (HL-60 [3]): Active
22.3 µM | O=C(Nc1nnc(-c2cccc(O)c2O)s1)c1ccccc1 | 12.3 µM | 20.7 µM | 21.8 µM | 23.2 µM | –
20.9 µM | O=C(Cc1ccccc1)Nc1nnc(-c2cccc(O)c2O)s1 | 11.8 µM | 13.9 µM | 120 µM | 45.3 µM | –
20.8 µM | CC(Cc1ccc(O)c(O)c1)C(C)Cc1ccc(O)c(O)c1 (stereo not given) [NORDIHYDROGUAIARETIC ACID] | – | – | – | – | –
17.9 µM | O=C(Nc1nnc(-c2ccc(O)c(O)c2)s1)C12CC3CC(CC(C3)C1)C2 | 13 µM | 7.4 µM | 16.1 µM | 20.1 µM | Activity (HL-60 [4]): Active; Activity (HL-60 [5]): Active; Activity (HL-60 [6]): Active; Activity (HL-60 [8]): Active; Activity (HL-60 [9]): Active; Activity (HL-60 [17]): Active; Activity (HL-60 [10]): Active; Activity (HL-60 [11]): inactive; Activity (HL-60 [12]): Active; Activity (HL-60 [13]): Active; Activity (HL-60 [14]): Active; Activity (HL-60 [15]): inactive; Activity (EA.hy 926 [18]): Active; Activity (HL-60 [16]): inactive
14.2 µM | O=C(Nc1nnc(-c2cccc(O)c2O)s1)C12CC3CC(CC(C3)C1)C2 | 12.8 µM | 7.3 µM | 21.4 µM | 27.7 µM | Activity (HL-60 [4]): Active; Activity (HL-60 [5]): Active; Activity (HL-60 [6]): Active; Activity (HL-60 [19]): Active; Activity (HL-60 [8]): Active; Activity (HL-60 [9]): Active; Activity (HL-60 [10]): Active; Activity (HL-60 [20]): Active; Activity (HL-60 [11]): inactive; Activity (HL-60 [21]): Active; Activity (HL-60 [12]): Active; Activity (HL-60 [13]): Active; Activity (HL-60 [14]): Active; Activity (HL-60 [15]): inactive; Activity (EA.hy 926 [18]): Active; Activity (HL-60 [16]): inactive
16.6 µM | O=C(COc1ccccc1)Nc1nnc(-c2cccc(O)c2O)s1 | 10.5 µM | 11.2 µM | 117 µM | 33.9 µM | Activity (HL-60 [3]): Active
